# Results filed as inconclusive are left out. Active and inactive are the calls of the source. No rule for the calls is given here.
# Test system: H4 cells, PrP 5'UTR luciferase reporter translation
# Test: prion protein stem-loop luciferase translation blockers – luminescence, dose response (AID 1994)
row,SMILES,EC50
1,C=C(C=O)CC1CC(O)[C@]2(C)OC3CC4OC5C[C@]6(C)O[C@]7(C)CCC8OC9C[C@]%10(C)OC%11C(C)=CC(=O)OC%11CC%10OC9C[C@@H](C)C8OC7CC6O[C@]5(C)CC5OC5C4OC3CC2O1 (some centres not stated),1580 nM
2,C#CCOCCOCCOCCNc1nc(N2CCN(C(=O)CCCCCCCCCCNC(=O)[C@H](CO)n3cc(CCCSC)nn3)CC2)nc(N2CCN(C(=O)CCCCCCCCCCNC(=O)[C@H](CCCCN)n3cc(C[C@@H](C)CC)nn3)CC2)n1,> 12000 nM (inactive)

# From PubChem BioAssay AID1994 (Broad Institute, 2009)
